Patent publication US9910031B2, “Compositions and methods for modulating c-Rel-dependent cytokine production” (Synta Pharmaceuticals Corporation, priority 2003, dated 2018)

Columns and labels:
c-Rel = experiment: ELISA based transcriptional factor-DNA binding activity assay, THP-1 nuclear extracts, c-Rel; format: cell-based, human; conditions: IFN-γ/LPS, 500 nm, 3 hrs
Experimental: Nuclear extracts were prepared from IFN-γ-primed THP-1 cells that had been treated with or without SAC and incubated in the presence or absence of 1 μM Compound 1 or 10 mM ASA. Isolation of nuclear extracts was accomplished by first suspending THP-1 cells in 20 volumes of buffer A containing 10 mM KCl, 10 mM HEPES (pH 7.9), 1 mM MgCl2, 1 mM dithiothreitol (DTT), 0.1% Nonidet p40 (NP-40), and 0.5 mM phenylmethylsulfonyl fluoride (PMSF) and then homogenizing and centrifuging at 10,000 rpm at 4° C. for 5 min. Nuclear pellets were then suspended in buffer C containing 400 mM NaCl, 20 mM HEPES pH 7.9), 15 mM MgCl2, 0.2 mM EDTA, 1 mM DTT, 25% glycerol, 1 mM PMSF, and 10 μg of leupeptin, 20 μg of pepstatin, and 10 μg of antipain per ml, incubated for 30 min at 4° C., and centrifuge at 14,000 rpm for […]. The supernatants were dialyzed against buffer D containing 100 mM NaCl, 20 mM HEPES (pH 7.9), 20% glycerol, 1 mM PMSF, and 1 mM DTT.
To understand the action of Compound 2 in NF-κB binding, several NF-κB family members, p50, c-Rel and p65 were investigated using an ELISA based transcriptional factor-DNA binding activity assay system. […]

p50 = experiment: Western blot of nuclear p50 in THP-1 cells; format: cell-based, human
From the text: In order to understand this changes, the subcellular localization of NF-κB proteins was investigated using western blot analysis.
Of the transcription factors that have been analyzed, two factors, ICSBP and c-Rel, seem to be affected by Compound 1/Compound 2 treatment. ICSBP binds indirectly to the Ets-2 site. The primary NFκB trans-activator for IL-12 is the c-Rel/p50 heterodimer. Other dimers (p65/p50 and p50/p50) either lack activity or have inhibitory functions. Thus, c-Rel plays a role in IL-12 transcription as a result of both activation through NFκB and its interaction with ICSBP. […] The membranes were blocked with 5% milk in TBST buffer and then incubated with anti-c-Rel, anti-p65, anti-p50, anti-ICSBP or anti-PU-1 antibody (all the antibodies were purchased from Santa Cruz) at a dilution of 1:500 for 1 h at room temperature or overnight at 4° C. The membranes were washed and incubated with Horseradish Peroxidase-conjugated anti-rabbit IgG or anti-mouse IgG (Amersham, England) at a dilution of 1:2000 at room temperature for 1 h.
Compound 2 impairs nuclear translocation of c-Rel and p50. We examined the nuclear translocation kinetics of NF-kB family members in LPS stimulated cells treated with Compound 2. THP1 cells were stimulated with LPS in either the presence or absence of 100 nM Compound 2, and the distribution of the NF-κB Rel family members are determined by immunoblotting nuclear (n.p.) extracts collected at 5 min, 15 min, 30 min, 1 h, 3 h and 6 h post-treatment. In response to LPS stimulation, p50 translocated into the nucleus as early as 5 minutes post-stimulation and accumulates as time goes on (FIG. 7, immunoblots and FIG. 8 densitometry). […] The experiment examining p65 nuclear translocation is shown in FIG. 9 (immunoblots) and FIG. 10 (densitometry). In LPS stimulated cells, p65 translocated into the nucleus as early as 5 minutes post-stimulation and accumulated to maximum levels at 15-30 minutes post-stimulation. Treatment of LPS-stimulated cells with Compound 2 had no effect on the kinetics of p65 nuclear entry.
THP-1 cells were suspended in 20 volumes of buffer A containing 10 mM KCl, 10 mM HEPES (pH 7.9), 1 mM MgCl2, 1 mM dithiothreitol (DTT), 0.1% Nonidet p40 (NP-40), and 0.5 mM phenylmethylsulfonyl fluoride (PMSF) and homogenized and centrifuged at 10,000 rpm at 4 C for 5 min. Nuclear pellets were then suspended in buffer C containing 400 mM NaCl, 20 mM HEPES 9 pH 7.9), 15 mM MgCl2, 0.2 mM EDTA, 1 mM DTT, 25% glycerol, 1 mM PMSF, and 10 ug of leupeptin, 20 ug of pepstatin, and 10 ug/ml antipain, incubated for 30 min at 4 C, and centrifuged at 14,000 rpm for 20 min. The supernatants were dialyzed against buffer D containing 100 mM NaCl, 20 mM HEPES (pH 7.9), 20% glycerol, 1 mM PMSF, and 1 mM DTT. […]

## Cc1cccc(C=NNc2cc(N3CCOCC3)nc(OCCc3ccccn3)n2)c1 [Compound 2, N-(3-methyl-benzylidene)-N′-[6-morpholin-4-yl-2-(2-pyridin-2-yl-ethoxy)-pyrimidin-4-yl]-hydrazine]
c-Rel
  binding activity of c-Rel: significantly decreased
p50; 500 nM, 3 hr, relative to untreated cells
  amount of p50 protein in nuclear: decreased
p50; THP1, IFN-γ plus LPS or IFN-γ plus SAC
  nuclear p50 levels (FIG. 4): decreased slightly
p50; THP1, LPS, 100 nM, 5 minutes to 1 hr post-stimulation
  kinetics of p50 nuclear entry: no effect
p50; THP1, LPS, 100 nM, 3 hours
  nuclear p50 protein levels: small decrease
